Results: patent US7208154B2, “Methods and compositions for the treatment of MHC-associated conditions” (Regents of the University of Michigan, priority 2002, dated 2007)
Read-outs that look alike come from different tables or passages of the source. No end group written: not given here.

How the values were obtained:
[1] = tested on: human fibroblastoid line M1 cells; conditions: for Inhibition of cAMP-dependent (2CA-induced) DNA repair induction / genoprotective pathway by pentapeptide: M1 cells preincubated overnight with 50 μg/ml synthetic pentapeptide; for Block of 2CA-triggered DNA repair activity: 10 μM 2CA, co-incubation with various concentrations; for Block of the inhibitory effect of shared epitope peptide (Bead*0401) on 2CA-induced DNA repair: prior incubation of M1 cells: L-NMA 5 mM overnight, KT5823 1 μM 10 min
Text: To further determine the signaling pathways involved in DNA repair induction, the inventors used the Trevigen CometAssay™ kit (Cat. No. 4250-50-K). The CometAssay is a single-cell gel electrophoresis method that can measure a variety of types of DNA damage, and repair of damage, in individual cells. The assay is based on the alkaline lysis of labile DNA at sites of damage. The unwound, relaxed DNA is able to migrate out of the cell during electrophoresis and can be visualized by SYBR Green staining.
To quantify DNA damage, cells were collected and three parallel samples were processed (a negative control, a DNA damage control (H2O2) and a sample subjected to H2O2 following exposure to various modulators of the cAMP signaling pathway). Cells are then washed in PBS. The washed cells are combined with molten low-melting agarose (Trevigen Cat. No. 4250-50-02) and transferred to a CometSlide™ (Trevigen Cat. No. 4250-100-03). The slides are immersed in lysis buffer for 30 min, on ice, in the dark. The slides are then treated with alkali buffer for 20 to 60 min at room temperature in the dark. The slides are then electrophoresed in buffer for 10 min at 20 volts, then fixed in methanol and ethanol. The slides are then stained with SYBR green (Trevigen Cat. No. 4250-50-05) solution and fluorescently imaged with a Diagnostic Instruments digitized camera, mounted on a Nikon Eclipse E400 microscope. Scion Image software is used to quantitate the comet tail intensity. Each data point is derived from tail fluorescent intensity determination in 50–100 individual cells. Data is presented as % DNA repair (the percent decrement in tail fluorescence intensity in agonist or antagonist-treated cells, relative to the intensity recorded in cells treated with H2O2 only)±SEM. (R.U.s)
To directly examine that possibility, cells were incubated overnight with synthetic peptides corresponding to the region contained within amino acids 65–79 and their ability to mount DNA repair activity in response to cAMP-elevating agents was determined. M1 cells were preincubated overnight with 50 μg/ml of synthetic peptides corresponding to the region surrounding the third allelic hypervariable region (aa 65–79) of each of the following DRβ chains: *0401 (65–79*0401) [SEQ ID NO: 5], *0402 (65–79*0402) [SEQ ID NO: 7], *0403 (65–79*0403) [SEQ ID NO: 9] or *0404(65–79*0404) [SEQ ID NO: 10]. At the end of the preincubation, cells were collected, washed and 2CA-induced DNA repair was determined as above. Table 3 (above) lists the different third allelic hypervariable region peptides used in the entire study disclosed here.
A modified method as described previously by Auger et al. [Nature Med 2:306–310 1996] was used. Briefly, cyanogen bromide activated Speharose 4B (1.5 ml) was washed with 1 mM HCl and incubated with peptides in 0.1 M NaHCO3 and 0.5 M NaCl (pH 8) buffer overnight at 4° C. For each peptide, 5 mg was used per milliliter of Sepharose. Free Sepharose groups were blocked with 0.2 M glycine (pH 8) for 2 hours at room temperature. Columns were washed at 4° C. with the following buffers: 0.1 M NaHCO3, 0.5 M NaCl (pH 8) buffer, then 0.5 M CH3COONa (pH 4) buffer and finally PBS at pH 7.5. M1 cells were plated at a density of 0.5×10^6 cells per well (6 well plate) in 10% FBS DMEM medium until 70–80% confluence. Prior to incubation with peptides, cultures were changed to serum-free DMEM medium, then evenly overlaid with 50 μg bead conjugated peptides, and incubated for the indicated period. Soluble peptides were added overnight to M1 cells at a concentration of 50 μg/ml.

M1 cells = assay: Intracellular cAMP level (enzyme immunoassay) in M1 cells after 2CA; assay type: cell-based, human; conditions: M1 cells preincubated 10 min with peptide-conjugated beads, 10 or 100 μM 2CA
Experimental: cAMP was determined by using an Amersham Pharmacia Biotech cAMP enzymeimmunoassay (EIA) system (code RPN 225). The reagents are prepared as described by the manufacturer (lysis reagents 1 and 2, the standard for the non-acetylation assay, the anti-cAMP antiserum, the cAMP peroxidase conjugate and wash buffer). […] Samples are added, followed by the antiserum solution. Following the recommended incubation, cAMP-peroxidase conjugate is added and incubated according to the recommended protocol. Each well is then aspirated and washed, and enzyme substrate is added and incubated. The results can then be read at 630 nm or at 450 nm (depending on the time of incubation and method of stopping the reaction), again according to the manufacturer's protocol.
A.) cAMP levels were assayed in M1 cells that were preincubated for 10 minutes with peptide-conjugated beads [Bead*0401, SEQ ID NO:6; Bead*0402, SEQ ID NO: 8], and intracellular cAMP level changes in response to stimulation with either 10 μM (FIG. 10A, top) or 100 μM (FIG. 10A, bottom) of 2CA were determined at different time points. cAMP levels were measured using a commercial enzyme immunoassay kit from Pharmacia. Results are expressed as fold increase of cAMP above baseline levels.

Protein kinase A (PKA) = assay: PKA activity in M1 cells after 2CA; assay type: cell-based, human; conditions: M1 cells preincubated with peptide-conjugated beads, 10 μM 2CA
Experimental: Protein kinase A (PKA) was measured using the Life Technologies™ Protein Kinase A (cAMP-dependent Protein Kinase) Assay System (Cat. No. 13128-012). The basis of the assay system is the use of a heptapeptide substrate and a 17-amino acid inhibitor peptide (which is valuable for proving PKA-specific protein kinase activity). Four assay conditions per experimental condition are recommended by the manufacturer (+/− inhibitor and +/− cAMP) to determine total PKA-specific kinase activity and proportion of PKA activated in the cells or tissue of interest. Briefly, the four parallel assay conditions are set up for each of the four assay conditions for a given cell or tissue sample, according to the manufacturer's instructions. Substrate and [γ-^32P]ATP (3000–6000 Ci/mmol stock solution) are then added to each tube, and incubated according to the manufacturer's instructions. Following the incubation period, a sample from each tube is spotted onto a […] disc, which is the acid washed prior to scintillation counting (all according to the manufacturer's instructions). Activity can then be determined as described by the manufacturer of the kit.
B.) PKA activity was determined in M1 cells preincubated with peptide-conjugated beads [Bead*0401, SEQ ID NO: 6; Bead*0402, SEQ ID NO: 8], at different time points following treatment with 10 μM 2CA as above.

[2] = tested on: hybrid neuroblastoma-glioma NG108–15 cell line; assay: Neuroprotection in acutely stressed NG108–15 cells; assay type: cell-based; conditions: near-confluent NG108–15, 50 μg/ml peptide, 24 hr
Experimental: In order to assess whether shared epitope-containing peptides exert a neuroprotective effect, preliminary experiments were carried out with the hybrid neuroblastoma-glioma NG108–15 cell line. Cells (10^5/ml) were first cultured overnight at near-confluence in 24-well plates in DMEM medium supplemented with 1% fetal calf serum (FCS). Under these conditions, NG108–15 cells show a flat, multipolar morphology and neurite formation. After 20 hours, cells were stressed acutely in serum-free medium (by aspiration of the medium and replacement with serum-free DMEM) with 50 μg/ml of peptides and evaluated morphologically at different time points thereafter. […] Morphological differences between cultures treated with different peptides could be observed as early as 5–6 hrs after treatment. The photographs shown were taken at the 24 hr time point. In another experiment (FIG. 12C), NG108–15 cells were cultured at low cell density (2×10^4/ml) in 1% FCS-containing DMEM medium overnight. The next day cells were subjected to acute stress in serum-free and low glucose (RPMI1640) medium (after aspiration of the 1% FCS DMEM) in the presence of 50 μg/ml of either 65–78*0401 [SEQ ID NO: 6] or 65–78*0402 [SEQ ID NO: 8] peptides. After 72 hours, cells were fixed with 1% formaldehyde and inspected microscopically. Mean±SEM was determined by averaging cell counts in eight randomly-selected microscopic fields in 200× magnification. Neurite-positive cells were defined as cells with one or more projections extending at least twice as long as the cell diameter. […] (FIG. 12C). The calculated number of neurite-positive cells was over 6-fold higher in shared epitope-containing peptide-cultured cells. When cultured in the presence of lysophosphatidic acid or high concentrations of serum, neuronal cells undergo neurite retraction (130). […] Thus, it is concluded that shared epitope-containing peptides may exert neuroprotective effects.

Molecule: Gln Lys Arg Ala Ala (QKRAA)
- Inhibition of cAMP-dependent (2CA-induced) DNA repair induction / genoprotective pathway by pentapeptide [1]: had a similar effect
- Inhibition of cAMP-dependent (2CA-induced) DNA repair induction / genoprotective pathway by pentapeptide ([1]; listed as #1): efficiently inhibited the genoprotective pathway

Molecule: Bead*0401: Sepharose beads chemically conjugated to 14-mer peptide, residues 65–78 of DRβ*0401 chain [SEQ ID NO: 6] (KDLLEQKRAAVDTY; also: conjugated to Sepharose beads)
- cAMP level response to 2CA (M1 cells): failed to increase cAMP levels
- PKA activation following 2CA (Protein kinase A (PKA)): failed to increase cAMP levels or activate PKA
- Block of cAMP-mediated (2CA-induced) DNA repair by Sepharose bead-conjugated peptide ([1]; M1 cells preincubated for various times with peptide-conjugated beads): blocked cAMP-mediated DNA repair

Molecule: CC(=O)N[C@H](C(=O)O)C(C)(C)SN=O (racemic) [SNAP, S-Nitroso-N-Acetylpenicillamine, reference compound]
- Block of 2CA-triggered DNA repair activity [1]: completely blocked

Molecule: O=S(=O)(NCCNC/C=C/c1ccc(Br)cc1)c1cccc2cnccc12 [H-89, reference compound]
- Block of 2CA-triggered DNA repair activity [1]: could also be blocked

Molecule: HBc*0401: recombinant chimeric hepatitis B core protein with insertion of amino acids 65–79 of the β chain encoded by HLA-DRB*0401
- Suppression of cAMP signaling (2CA-induced DNA repair) ([1]; M1 cells preincubated overnight with 50 μg/ml recombinant HBc particles): effectively suppressed cAMP signaling

Molecule: CCCn1c(=O)[nH]c(=O)c2[nH]cnc21 [enprofylline, reference compound]
- Block of 2CA-triggered DNA repair activity [1]: could be blocked

Molecule: CNC(=N)NCCC[C@H](N)C(=O)O [L-NMA, NG-methyl-L-arginine, reference compound]
- Block of the inhibitory effect of shared epitope peptide (Bead*0401) on 2CA-induced DNA repair [1]: could be blocked

Molecule: Nc1nc2c(nc(Br)n2[C@@H]2O[C@@H]3COP(=O)(O)O[C@H]3[C@H]2O)c(=O)[nH]1 [8-Br-cGMP, 8-bromo-cyclic GMP, reference compound]
- Block of 2CA-triggered DNA repair activity [1]: completely blocked

Molecule: Gln Glu Cys Leu Ala (QECLA)
- Inhibition of cAMP-dependent (2CA-induced) DNA repair induction / genoprotective pathway by pentapeptide [1]: failed to do so

Molecule: CCCn1c(=O)c2[nH]c(-c3ccc(OCC(=O)NCCN)cc3)nc2n(CCC)c1=O [XAC, reference compound]
- Block of 2CA-triggered DNA repair activity [1]: could be blocked

Molecule: Bead*0402: Sepharose beads chemically conjugated to 14-mer peptide, residues 65–78 of DRβ*0402 chain [SEQ ID NO: 8] (KDILEDERAAVDTY; also: conjugated to Sepharose beads)
- cAMP level response to 2CA (M1 cells): mounted substantial response to the agonist
- PKA activation following 2CA (Protein kinase A (PKA)): mounted substantial response to the agonist

Molecule: CCCCC[C@H](O)/C=C/[C@H]1[C@H](O)CC(=O)[C@@H]1CCCCCCC(=O)O [PGE1, prostaglandin E1, reference compound]
- DNA repair triggered ([1]; M1 cells stimulated 20 min with various concentrations before 100 μM H2O2): triggered in all cases DNA repair

Molecule: Gln Lys Arg Leu Ala (QKRLA)
- Inhibition of cAMP-dependent (2CA-induced) DNA repair induction / genoprotective pathway by pentapeptide [1]: equally effective in suppressing cAMP signaling
- Inhibition of cAMP-dependent (2CA-induced) DNA repair induction / genoprotective pathway by pentapeptide ([1]; listed as #3): efficiently inhibited the genoprotective pathway

Molecule: Gln Lys Cys Leu Ala (QKCLA)
- Inhibition of cAMP-dependent (2CA-induced) DNA repair induction / genoprotective pathway by pentapeptide [1]: equally effective in suppressing cAMP signaling
- Inhibition of cAMP-dependent (2CA-induced) DNA repair induction / genoprotective pathway by pentapeptide ([1]; listed as #5): efficiently inhibited the genoprotective pathway

Molecule: COC(=O)[C@@]1(OC)C[C@H]2O[C@]1(C)n1c3ccccc3c3c4c(c5c6ccccc6n2c5c31)C(=O)N(C)C4 [KT5823, reference compound]
- Block of the inhibitory effect of shared epitope peptide (Bead*0401) on 2CA-induced DNA repair [1]: could be blocked

Molecule: Gln Arg Arg Ala Ala (QRRAA)
- Inhibition of cAMP-dependent (2CA-induced) DNA repair induction / genoprotective pathway by pentapeptide [1]: inhibited completely cAMP-dependent DNA repair induction
- Inhibition of cAMP-dependent (2CA-induced) DNA repair induction / genoprotective pathway by pentapeptide ([1]; listed as #2): efficiently inhibited the genoprotective pathway

Molecule: KDILEDERAAVDTY [65–78*0402, control peptide, amino acids 65–78 of the β chain encoded by the HLA-DRB*0402 allele]
- Cell morphology after acute serum-free stress [2]: adjacent cells showed a rounding effect and collapsed into aggregates
